Laboratory results from ChEMBL document CHEMBL4428035, “Urea derivates of ursolic, oleanolic and maslinic acid induce apoptosis and are selective cytotoxic for several human tumor cell lines” (Eur J Med Chem, 2016).

How the values were obtained:
518A2 = test: Cytotoxicity against human 518A2 cells assessed as reduction in cell proliferation after 96 hrs by sulforhodamine B assay; assay type: functional, cell-based; details: 518A2, 96 h
HT-29 = test: Cytotoxicity against human HT-29 cells assessed as reduction in cell proliferation after 96 hrs by sulforhodamine B assay; assay type: functional, cell-based; details: HT-29, 96 h
A2780 = test: Cytotoxicity against human A2780 cells assessed as reduction in cell proliferation after 96 hrs by sulforhodamine B assay; assay type: functional, cell-based; details: A2780, 96 h
A549 = test: Cytotoxicity against human A549 cells assessed as reduction in cell proliferation after 96 hrs by sulforhodamine B assay; assay type: functional, cell-based; details: A549, 96 h
MCF7 = test: Cytotoxicity against human MCF7 cells assessed as reduction in cell proliferation after 96 hrs by sulforhodamine B assay; assay type: functional, cell-based; details: MCF7, 96 h
NIH3T3 = test: Cytotoxicity against mouse NIH/3T3 cells assessed as reduction in cell proliferation after 96 hrs by sulforhodamine B assay; assay type: ADME, cell-based; details: NIH3T3, 96 h
SW-1736 = test: Cytotoxicity against human SW1736 cells assessed as reduction in cell proliferation after 96 hrs by sulforhodamine B assay; assay type: functional, cell-based; details: SW-1736, 96 h
FaDu = test: Cytotoxicity against human FADU cells assessed as reduction in cell proliferation after 96 hrs by sulforhodamine B assay; assay type: functional, cell-based

Structure (SMILES)	EC50 (518A2)	EC50 (HT-29)	EC50 (A2780)	EC50 (A549)	EC50 (MCF7)	EC50 (NIH3T3)	EC50 (SW-1736)	EC50 (FaDu)
CC(=O)O[C@H]1C[C@]2(C)[C@H]3CC=C4[C@@H]5[C@@H](C)[C@H](C)CC[C@]5(NC(=O)Oc5ccccc5)CC[C@@]4(C)[C@]3(C)CC[C@H]2C(C)(C)[C@H]1OC(C)=O	3.1 µM	7.6 µM	1.6 µM	10.1 µM	23.3 µM	> 30 µM	5.5 µM	–
CC(=O)O[C@H]1C[C@]2(C)[C@H]3CC=C4[C@@H]5CC(C)(C)CC[C@]5(C(=O)O)CC[C@@]4(C)[C@]3(C)CC[C@H]2C(C)(C)[C@H]1OC(C)=O	–	18.8 µM	7.2 µM	29.1 µM	15.1 µM	8 µM	> 30 µM	> 30 µM
CO[C@@H]1C[C@]2(C)[C@H]3CC=C4[C@@H]5CC(C)(C)CC[C@]5(C(=O)NCc5ccccc5)CC[C@@]4(C)[C@]3(C)CC[C@H]2C(C)(C)[C@H]1O	12.6 µM	10.6 µM	–	21.5 µM	11.7 µM	11.9 µM	18.1 µM	11.4 µM
CC(=O)O[C@@H]1C[C@]2(C)[C@H]3CC=C4[C@@H]5CC(C)(C)CC[C@]5(C(=O)NCCc5ccccc5)CC[C@@]4(C)[C@]3(C)CC[C@H]2C(C)(C)[C@H]1OC(C)=O	1.2 µM	6.1 µM	–	9.2 µM	5.8 µM	9.5 µM	5.2 µM	2.8 µM
CC(=O)O[C@H]1C[C@]2(C)[C@H]3CC=C4[C@@H]5CC(C)(C)CC[C@]5(C(=O)Nc5ccccc5)CC[C@@]4(C)[C@]3(C)CC[C@H]2C(C)(C)[C@H]1OC(C)=O	2 µM	2.6 µM	1.3 µM	4.9 µM	1.8 µM	> 60 µM	2.7 µM	–
CC(=O)O[C@H]1C[C@]2(C)[C@H]3CC=C4[C@@H]5[C@@H](C)[C@H](C)CC[C@]5(C(=O)Nc5ccccc5)CC[C@@]4(C)[C@]3(C)CC[C@H]2C(C)(C)[C@H]1OC(C)=O	3.4 µM	7.3 µM	3.3 µM	8.9 µM	16.4 µM	> 60 µM	4.4 µM	–
CO[C@@H]1C[C@]2(C)[C@H]3CC=C4[C@@H]5CC(C)(C)CC[C@]5(C(=O)NCc5ccccc5)CC[C@@]4(C)[C@]3(C)CC[C@H]2C(C)(C)[C@H]1OC	18.1 µM	14.3 µM	–	15.3 µM	14.6 µM	14.7 µM	20.5 µM	17.2 µM
CC(=O)O[C@@H]1C[C@]2(C)[C@H]3CC=C4[C@@H]5CC(C)(C)CC[C@]5(C(=O)O)CC[C@@]4(C)[C@]3(C)CC[C@H]2C(C)(C)[C@H]1OC(C)=O	23.1 µM	–	–	–	16.6 µM	–	–	17.8 µM
CC1(C)CC[C@]2(C(=O)NCc3ccccc3)CC[C@]3(C)C(=CC[C@@H]4[C@@]5(C)C[C@@H]6O[C@@H]6C(C)(C)[C@@H]5CC[C@]43C)[C@@H]2C1	15.7 µM	26.6 µM	8.6 µM	25.8 µM	8.6 µM	20.5 µM	> 30 µM	> 30 µM
CC(=O)O[C@H]1C[C@]2(C)[C@H]3CC=C4[C@@H]5[C@@H](C)[C@H](C)CC[C@]5(NC(=O)Nc5ccccc5)CC[C@@]4(C)[C@]3(C)CC[C@H]2C(C)(C)[C@H]1OC(C)=O	2.5 µM	16 µM	1.5 µM	12.4 µM	19.6 µM	> 120 µM	6.8 µM	–
